Results from PMC3800014 (Journal of insect physiology, 2013).

Legend:
Assay type in all cases: cell-based
[1] = target: T1, CquiOR1 (CquiOR1•CquiOrco) (Culex quinquefasciatus, UniProt S5RQ84); assay: Xenopus oocyte recording, UM laboratory; conditions: agonist; co-expressed CquiOrco; positive control
T1 sequence (S5RQ84 1-391): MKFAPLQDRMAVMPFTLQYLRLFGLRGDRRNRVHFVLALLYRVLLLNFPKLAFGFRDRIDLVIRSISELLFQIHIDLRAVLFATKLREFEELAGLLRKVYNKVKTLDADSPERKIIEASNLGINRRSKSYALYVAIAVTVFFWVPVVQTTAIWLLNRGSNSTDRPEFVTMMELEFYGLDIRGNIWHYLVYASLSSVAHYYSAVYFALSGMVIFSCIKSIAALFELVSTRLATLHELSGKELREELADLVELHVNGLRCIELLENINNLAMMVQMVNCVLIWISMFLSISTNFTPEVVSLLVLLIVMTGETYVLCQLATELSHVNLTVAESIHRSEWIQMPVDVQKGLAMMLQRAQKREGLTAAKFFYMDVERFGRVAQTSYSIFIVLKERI

[2] = target: T2, CquiOR44 (CquiOR44•CquiOrco) (Culex quinquefasciatus, UniProt S5RSX8); assay: two-electrode voltage clamp, Xenopus oocytes, inward current; conditions: agonist; co-expressed CquiOrco; -70 mV
T2 sequence (S5RSX8 1-423): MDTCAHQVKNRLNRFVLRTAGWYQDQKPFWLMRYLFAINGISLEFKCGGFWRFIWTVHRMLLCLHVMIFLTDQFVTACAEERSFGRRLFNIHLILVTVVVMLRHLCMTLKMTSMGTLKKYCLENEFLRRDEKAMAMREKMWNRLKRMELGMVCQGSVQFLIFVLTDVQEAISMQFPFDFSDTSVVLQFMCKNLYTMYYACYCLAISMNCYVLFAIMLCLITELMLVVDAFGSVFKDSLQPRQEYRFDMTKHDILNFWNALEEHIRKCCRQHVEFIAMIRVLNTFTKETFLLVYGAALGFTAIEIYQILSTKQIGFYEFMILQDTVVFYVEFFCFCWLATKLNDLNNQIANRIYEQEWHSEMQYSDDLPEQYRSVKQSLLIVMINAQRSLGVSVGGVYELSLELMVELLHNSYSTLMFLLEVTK

[3] = target: T3, CquiOR73 (CquiOR73•CquiOrco) (Culex quinquefasciatus, UniProt S5R433); assay: as above; conditions: agonist; co-expressed CquiOrco; -70 mV
T3 sequence (S5R433 1-396): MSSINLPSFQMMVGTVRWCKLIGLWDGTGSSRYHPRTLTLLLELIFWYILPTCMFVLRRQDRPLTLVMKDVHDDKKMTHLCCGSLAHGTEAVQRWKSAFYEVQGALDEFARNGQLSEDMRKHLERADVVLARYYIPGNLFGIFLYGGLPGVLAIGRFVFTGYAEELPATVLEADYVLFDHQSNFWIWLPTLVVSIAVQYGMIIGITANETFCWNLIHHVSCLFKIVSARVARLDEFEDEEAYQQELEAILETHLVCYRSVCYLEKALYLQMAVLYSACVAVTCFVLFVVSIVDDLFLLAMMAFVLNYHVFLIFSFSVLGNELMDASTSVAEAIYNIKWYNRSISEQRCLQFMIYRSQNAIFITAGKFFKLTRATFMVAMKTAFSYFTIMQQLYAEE

[4] = target: T1, CquiOR1 (CquiOR1•CquiOrco); assay: as above; conditions: agonist; co-expressed CquiOrco; -70 mV

**Q.** With `CC(=O)c1ccccc1` [acetophenone] as the compound, how does the “Xenopus oocyte recording, UM laboratory” value [1] read?
**A.** Its value is “phenol, acetophenone, benzaldehyde, and 6-methyl-5-hepten-2-one”.

**Q.** `CC1(C)C(=O)[C@@]2(C)CC[C@@H]1C2` [(+)-fenchone] was tested. Which “two-electrode voltage clamp, Xenopus oocytes, inward current” value (“two-electrode voltage clamp” for short) [2] did it give?
**A.** The value was “no chiral discrimination as responses to (+)- and (−)-fenchone did not differ”.

**Q.** Which “two-electrode voltage clamp” value [3] does the source give for `C=CCc1ccc(O)c(OC)c1` [eugenol] here?
**A.** Its value is “eugenol was the best ligand identified for this OR”.

**Q.** `C=CC(O)CCCCC` (stereo not drawn) [1-octen-3-ol] was tested. Which “two-electrode voltage clamp” value [4] did it give?
**A.** The value was “when CquiOR1 was challenged with 1-hexanol, 1-octen-3-ol, 2-phenoxyethanol, or benzaldehyde”.

**Q.** How did the “two-electrode voltage clamp” value [2] turn out when `CC1(C)C(=O)[C@]2(C)CC[C@H]1C2` [(−)-fenchone] was run?
**A.** Its value is “no chiral discrimination as responses to (+)- and (−)-fenchone did not differ”.

**Q.** `CCCCCCO` [1-hexanol] was tested. Which “two-electrode voltage clamp” value [4] did it give?
**A.** Its value is “when CquiOR1 was challenged with 1-hexanol, 1-octen-3-ol, 2-phenoxyethanol, or benzaldehyde”.

**Q.** With `CC1CCC(C(C)(C)O)C(O)C1` (stereo not drawn) [p-menthane-3,8-diol] as the compound, how does the “two-electrode voltage clamp” value [2] read?
**A.** The value was “including known natural repellents like p-menthane-3,8-diol”.

**Q.** How did the “Xenopus oocyte recording, UM laboratory” value [1] turn out when `CCc1ccc(O)cc1` [4-ethylphenol] was run?
**A.** Its value is “medium to large responses when challenged with indole, 4-ethylphenol, 4-methylphenol, phenol”.

**Q.** For `CCCCCCCCOC(C)=O` [octyl acetate], which “two-electrode voltage clamp” value [3] is on record?
**A.** Its value is “no significant response to the majority of compounds in the panel, except for octyl acetate”.
